Results reported in US9650339B2, “Inhibitors of histone demethylases” (Gilead Sciences, Inc., priority 2013, dated 2017).

What was measured:
Assay type in all cases: cell-based
KDM2A = molecular target: T1, KDM2A (Homo sapiens, UniProt Q9Y2K7); assay: Histone lysine demethylase immunofluorescence assay, U2OS cells transfected with KDM2A; details: U2OS cells transfected with pCMVHA KDM2A; mark detected H3K36me2; 20 hours
T1 construct: Full length; host or cells: U2OS
T1 sequence (Q9Y2K7 1-1162): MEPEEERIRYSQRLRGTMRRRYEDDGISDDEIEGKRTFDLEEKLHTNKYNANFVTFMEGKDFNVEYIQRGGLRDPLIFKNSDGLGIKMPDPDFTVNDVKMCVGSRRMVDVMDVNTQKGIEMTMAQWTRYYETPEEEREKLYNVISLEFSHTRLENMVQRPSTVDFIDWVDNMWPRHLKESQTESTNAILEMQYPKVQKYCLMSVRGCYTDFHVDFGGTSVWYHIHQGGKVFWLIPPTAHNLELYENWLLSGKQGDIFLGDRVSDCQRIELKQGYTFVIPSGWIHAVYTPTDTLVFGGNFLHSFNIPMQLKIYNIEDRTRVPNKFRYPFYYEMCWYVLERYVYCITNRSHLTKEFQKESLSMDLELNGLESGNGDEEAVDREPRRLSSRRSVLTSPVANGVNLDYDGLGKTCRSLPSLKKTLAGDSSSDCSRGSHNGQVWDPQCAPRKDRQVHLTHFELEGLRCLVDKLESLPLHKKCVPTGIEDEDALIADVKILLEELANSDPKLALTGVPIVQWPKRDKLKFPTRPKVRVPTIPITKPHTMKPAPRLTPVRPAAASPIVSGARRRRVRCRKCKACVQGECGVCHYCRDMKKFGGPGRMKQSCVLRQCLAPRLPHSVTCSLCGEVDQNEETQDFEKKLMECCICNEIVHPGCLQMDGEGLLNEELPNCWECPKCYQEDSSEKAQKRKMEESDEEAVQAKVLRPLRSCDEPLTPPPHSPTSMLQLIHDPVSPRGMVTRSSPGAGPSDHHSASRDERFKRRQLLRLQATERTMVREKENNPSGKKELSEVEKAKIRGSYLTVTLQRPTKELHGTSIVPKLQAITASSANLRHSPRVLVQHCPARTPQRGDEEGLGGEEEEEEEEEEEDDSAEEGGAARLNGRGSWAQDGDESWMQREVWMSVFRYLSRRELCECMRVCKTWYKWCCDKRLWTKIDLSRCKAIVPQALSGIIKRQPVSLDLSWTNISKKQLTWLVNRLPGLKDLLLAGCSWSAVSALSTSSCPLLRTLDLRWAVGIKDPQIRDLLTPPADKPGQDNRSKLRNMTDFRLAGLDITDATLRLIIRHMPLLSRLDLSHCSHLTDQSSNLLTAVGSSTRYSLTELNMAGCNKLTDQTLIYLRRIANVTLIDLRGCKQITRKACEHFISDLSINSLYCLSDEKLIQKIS
Method: (§1) U2OS cells were seeded 24 hours before transfection. Transfection was performed with Fugene HD transfection reagent as recommended by the manufacturer. 6 hours after transfection, the cells were harvested and seeded into multi well plates into media containing compound. The media used was DMEM containing 10% FBS and pen/strep. 20 hours after incubation of cells with compounds, the cells were washed in PBS, harvested by fixation with formaldehyde 4% aqueous solution, and washed in PBS. Subsequently, the cells were permeabilized in PBS with 0.2% Triton X-100 for. Blocking was performed in PBS with 0.2% Triton X-100 and 5% FBS. The cells were incubated with primary antibodies in blocking solution over night at 4° C. The primary antibodies used in the assays were HA.11 (Covance, MMS-101P) and the antibody detecting the mark specified in the table below. After incubation with primary antibodies, the cells were washed with PBS, incubated with secondary antibodies (Alexa fluor 594 goat anti rabbit IgG, Invitrogen, A11012; Alexa flour 488 donkey anti mouse IgG, Invitrogen, A21202) and Hoechst, (Sigma, 33342) in blocking solution, and washed again with PBS. Finally, PBS was added and high throughput imaging and analysis were performed by an IN Cell Analyzer 1000 (GE Healthcare). The robot software analyzed individual cells and divided these into HA+ (transfected cells) and HA− (non-transfected cells). The IC50 values were based on an average measure of the staining of the mark specified in the table below in the transfected cells.

KDM4A = molecular target: T2, KDM4A (Homo sapiens, UniProt O75164); assay: Histone lysine demethylase immunofluorescence assay, U2OS cells transfected with KDM4A; details: U2OS cells transfected with pCMVHA KDM4A; mark detected H3K9me3; 20 hours
T2 construct: Full length; host or cells: U2OS
T2 sequence (O75164 1-1064): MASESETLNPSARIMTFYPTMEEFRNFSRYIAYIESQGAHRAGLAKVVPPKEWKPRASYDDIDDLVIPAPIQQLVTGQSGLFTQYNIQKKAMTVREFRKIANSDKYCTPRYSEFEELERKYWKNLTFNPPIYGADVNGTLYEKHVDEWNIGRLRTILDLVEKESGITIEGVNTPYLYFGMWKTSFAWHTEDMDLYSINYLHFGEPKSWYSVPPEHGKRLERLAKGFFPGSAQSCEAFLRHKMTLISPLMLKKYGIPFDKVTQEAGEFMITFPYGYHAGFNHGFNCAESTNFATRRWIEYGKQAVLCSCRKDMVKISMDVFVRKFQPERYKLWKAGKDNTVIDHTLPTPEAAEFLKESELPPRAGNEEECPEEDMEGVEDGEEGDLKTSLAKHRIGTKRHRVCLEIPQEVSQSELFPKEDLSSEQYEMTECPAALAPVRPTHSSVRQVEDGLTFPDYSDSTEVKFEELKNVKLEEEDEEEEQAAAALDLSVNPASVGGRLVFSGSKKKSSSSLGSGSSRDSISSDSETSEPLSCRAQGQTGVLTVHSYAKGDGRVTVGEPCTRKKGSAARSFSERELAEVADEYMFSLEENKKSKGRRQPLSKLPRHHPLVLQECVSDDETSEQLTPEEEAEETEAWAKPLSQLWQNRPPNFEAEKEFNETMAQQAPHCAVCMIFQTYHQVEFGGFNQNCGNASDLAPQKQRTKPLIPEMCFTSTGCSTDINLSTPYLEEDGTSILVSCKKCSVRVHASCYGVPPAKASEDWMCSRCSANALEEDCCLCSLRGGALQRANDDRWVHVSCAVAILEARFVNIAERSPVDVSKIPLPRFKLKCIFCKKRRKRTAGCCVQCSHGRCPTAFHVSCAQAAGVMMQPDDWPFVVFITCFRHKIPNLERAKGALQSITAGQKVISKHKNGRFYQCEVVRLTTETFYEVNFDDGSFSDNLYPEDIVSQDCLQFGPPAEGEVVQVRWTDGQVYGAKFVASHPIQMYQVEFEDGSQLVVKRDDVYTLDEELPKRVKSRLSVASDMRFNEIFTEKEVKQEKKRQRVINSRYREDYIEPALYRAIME
Method: as §1

KDM6B = molecular target: T3, KDM6B (Homo sapiens, UniProt O15054); assay: Histone lysine demethylase immunofluorescence assay, U2OS cells transfected with KDM6B; details: U2OS cells transfected with pCMVHA KDM6B; mark detected H3K27me2; 20 hours
T3 construct: (a.a. 1026-1682); host or cells: U2OS
Method: as §1

T3 sequence (O15054 1026-1682 isoform O15054-1): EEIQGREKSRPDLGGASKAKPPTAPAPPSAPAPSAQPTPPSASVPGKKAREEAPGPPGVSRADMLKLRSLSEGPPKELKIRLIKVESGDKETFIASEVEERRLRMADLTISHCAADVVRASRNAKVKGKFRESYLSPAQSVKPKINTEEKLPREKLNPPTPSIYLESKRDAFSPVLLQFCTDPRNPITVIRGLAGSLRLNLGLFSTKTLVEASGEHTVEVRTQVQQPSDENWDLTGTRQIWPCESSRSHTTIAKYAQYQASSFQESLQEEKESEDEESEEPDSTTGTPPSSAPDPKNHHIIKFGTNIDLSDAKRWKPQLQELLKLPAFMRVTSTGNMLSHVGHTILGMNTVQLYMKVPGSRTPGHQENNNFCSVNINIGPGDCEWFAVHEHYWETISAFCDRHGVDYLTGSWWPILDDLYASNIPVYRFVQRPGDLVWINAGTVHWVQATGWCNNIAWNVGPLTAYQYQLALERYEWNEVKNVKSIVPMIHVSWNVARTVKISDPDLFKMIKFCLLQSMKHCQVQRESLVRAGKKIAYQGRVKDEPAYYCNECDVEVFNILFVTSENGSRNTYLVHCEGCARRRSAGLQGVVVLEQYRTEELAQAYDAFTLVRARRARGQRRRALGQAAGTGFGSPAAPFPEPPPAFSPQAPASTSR

IC50 (KDM2A) [nM] | IC50 (KDM4A) [nM] | IC50 (KDM6B) [nM] | Structure (SMILES)
> 2500 | – | – | OCC/N=C/c1ccnc(CNCCc2ccccc2OCc2ccccc2)c1 [Compound 93, 2-[({2-[({2-[2-(benzyloxy)phenyl]-ethyl}amino)methyl]-pyridin-4-yl}methylidene)-amino]ethan-1-ol]
– | > 2500 | – | CN(CCCNCc1cc(/C=N/C2CC2)ccn1)Cc1ccccc1 [Compound 41, N-({2-[({3-[benzyl(methyl)amino]-propyl}amino)methyl]-pyridin-4-yl}methylidene)-cyclopropanamine]
– | > 2500 | – | CN(C)C(=O)CNCc1cc(/C=N/CCC2CCCCC2)ccn1 [Compound 36, 2-[({4-[[(2-cyclohexylethyl)imino]-methyl]pyridin-2-yl}methyl)amino]-N,N-dimethylacetamide]
– | < 250 | > 2500 | CCN(CCN(C)C)C(=O)CNCc1cc(C2OCC(Cc3ccccc3)CN2C(=O)C(F)(F)F)ccn1 (stereo not shown) [Compound 90, 2-[({4-[5-benzyl-3-(trifluoroacetyl)-1,3-oxazinan-2-yl]pyridin-2-yl}methyl)amino]-N-[2-(dimethylamino)-ethyl]-N-ethylacetamide]
> 2500 | – | – | CN(Cc1ccccc1F)C(=O)CNCc1cc(/C=N/CCO)ccn1 [Compound 92, N-[(2-fluorophenyl)methyl]-2-[({4-[[(2-hydroxyethyl)imino]-methyl]pyridin-2-yl}methyl)amino]-N-methylacetamide]
– | < 250 | – | CN(C)CC1CCC(CNCc2cc(/C=N/C3CC3)ccn2)CC1 (stereo not shown) [Compound 46, N-[(2-{[({4-[(dimethylamino)-methyl]cyclohexyl}-methyl)amino]-methyl}pyridin-4-yl)methylidene]-cyclopropanamine]
– | > 2500 | – | O=C(CNCc1cc(/C=N/C2CC2)ccn1)NC1CCN(Cc2ccccc2)C1 (stereo not shown) [Compound 53, N-(1-benzylpyrrolidin-3-yl)-2-[({4-[N-cyclopropyl-carboximidoyl]pyridin-2-yl}methyl)amino]-acetamide]
– | > 2500 | – | COc1ccccc1CN1CCC(NC(=O)CNCc2cc(CN)ccn2)CC1 [Compound 9, 2-({[4-(aminomethyl)pyridin-2-yl]methyl}amino)-N-{1-[(2-methoxyphenyl)methyl]-piperidin-4-yl}acetamide]
– | 250 to 2500 | – | O=Cc1ccnc(CNCC(=O)N2CCC[C@@H]2CN2CCCC2)c1 [Compound 102, 2-[({2-oxo-2-[(2R)-2-(pyrrolidin-1-ylmethyl)pyrrolidin-1-yl]ethyl}amino)-methyl]pyridine-4-carbaldehyde]
– | > 2500 | > 2500 | C(=N/C1CC1)/c1ccnc(CNCCCN2CCCC2)c1 [Compound 42, N-{[2-({[3-(pyrrolidin-1-yl)propyl]amino}-methyl)pyridin-4-yl]methylidene}-cyclopropanamine]

Further lines, the compound ahead of its results:

Structure (SMILES) | IC50 (KDM2A) [nM] | IC50 (KDM4A) [nM] | IC50 (KDM6B) [nM]
CCN(CCN(C)C)C(=O)CNCc1cc(CN)ccn1 [Compound 4, 2-({[4-(aminomethyl)pyridin-2-yl]methyl}amino)-N-[2-(dimethylamino)ethyl]-N-ethylacetamide] | – | – | > 2500
O=Cc1ccnc(CNCCCN2CCCC2)c1 [Compound 111, 2-({[3-(pyrrolidin-1-yl)propyl]amino}-methyl)pyridine-4-carbaldehyde] | – | > 2500 | –
CN(C)CCNCc1ccnc(CNCC(=O)N(C)C)c1 [Compound 15, 2-({[4-({[2-(dimethylamino)ethyl]-amino}methyl)pyridin-2-yl]methyl}amino)-N,N-dimethylacetamide] | – | > 2500 | –
CCN(CCC#N)C(=O)CNCc1cc(/C=N/CCO)ccn1 [Compound 94, N-(2-cyanoethyl)-N-ethyl-2-[({4-[[(2-hydroxyethyl)imino]-methyl]pyridin-2-yl}methyl)amino]-acetamide] | > 2500 | – | –
CCN(CCN(C)C)C(=O)CNCc1cc(C=O)ccn1 [Compound 101] | – | 250 to 2500 | > 2500
CC(C)C[C@H](NCc1cc(/C=N/CCO)ccn1)C(=O)N1CCCCC1 [Compound 95, (2S)-2-[({4-[[(2-hydroxyethyl)imino]-methyl]pyridin-2-yl}methyl)amino]-4-methyl-1-(piperidin-1-yl)pentan-1-one] | > 2500 | – | –
CCN(CC)CCCCNCc1cc(/C=N/CCOC)ccn1 [Compound 60, [4-(diethylamino)butyl]-({4-[[(2-methoxyethyl)imino]-methyl]pyridin-2-yl}methyl)amine] | – | 250 to 2500 | –
CN(C)C(=O)CNCc1cc(CNCC#N)ccn1 [Compound 13, 2-{[(4-{[(cyanomethyl)amino]-methyl}pyridin-2-yl)methyl]amino}-N,N-dimethylacetamide] | – | 250 to 2500 | –
CCN(CC)CCCCNCc1cc(C=O)ccn1 [Compound 107, 2-({[4-(diethylamino)-butyl]amino}-methyl)pyridine-4-carbaldehyde] | – | – | > 2500
CNC(C#N)c1ccnc(CNCCCN(C)C)c1 (stereo not shown) [Compound 24, 2-[2-({[3-(dimethylamino)propyl]-amino}methyl)pyridin-4-yl]-2-(methylamino)-acetonitrile] | – | – | > 2500
CN(CC(=O)N1CCCCC1)Cc1cc(C=O)ccn1 [Compound 120, 2-({methyl[2-oxo-2-(piperidin-1-yl)ethyl]amino}-methyl)pyridine-4-carbaldehyde] | > 2500 | – | –
CN(C)C/C=C/CNCc1cc(C=O)ccn1 [Compound 98, 2-({[(2E)-4-(dimethylamino)but-2-en-1-yl]amino}-methyl)pyridine-4-carbaldehyde] | – | < 250 | –
